Experimental data reported in US4200575A, “7[(2-Thiazolyl)-2-(oxoimino)acetamido]cephalosporin derivatives” (Takeda Chemical Industries, Ltd., priority 1977, dated 1980).

Key:
Test in all cases: Minimal inhibitory concentration (M.I.C.), agar dilution method
Settings in all cases: TSA, inoculum 10^7 /ml
E. coli 0-111 = type: cell-based, Escherichia coli
Summary of the method: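 MIC against E. coli O-111 was determined by agar dilution.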

K. pneumoniae GN 3835 = type: cell-based, Klebsiella pneumoniae
Source text: (§1) (a) Determination of minimal inhibitory concentrations (Tables 1 to 8):
(§2) Procedure: agar dilution method

K. pneumoniae DT = type: cell-based, Klebsiella pneumoniae
Source text: as §1, §2

P. morganii IFO 3168 = type: cell-based, Proteus morganii
Source text: as §1, §2

C. freundii GN 1706 = type: cell-based, Citrobacter freundii
Source text: as §1, §2

C. freundii GN 99 = type: cell-based, Citrobacter freundii
Source text: as §1, §2

E. coli NIHJ JC-2 = type: cell-based, Escherichia coli
Source text: as §1, §2

E. coli T-7 = type: cell-based, Escherichia coli
Source text: as §1, §2

P. vulgaris IFO 3988 = type: cell-based, Proteus vulgaris
Source text: as §1, §2

P. vulgaris GN 4413 = type: cell-based, Proteus vulgaris
Source text: as §1, §2

P. mirabilis GN 4359 = type: cell-based, Proteus mirabilis
Source text: as §1, §2

S. aureus 1840 = type: cell-based, Staphylococcus aureus
Source text: as §1, §2

S. aureus 209P = type: cell-based, Staphylococcus aureus
Source text: as §1, §2

S. marcescens IFO 12648 = type: cell-based, Serratia marcescens
Source text: as §1, §2

S. marcescens TN 24 = type: cell-based, Serratia marcescens
Source text: as §1, §2

E. cloacae TN 1282 = type: cell-based, Enterobacter cloacae
Source text: as §1, §2

P. rettgeri TN 338 = type: cell-based, Proteus rettgeri
Source text: as §1, §2

P. rettgeri GN4733 = type: cell-based, Proteus rettgeri
Source text: as §1, §2

Structure (SMILES) | minimal inhibitory concentration (M.I.C.) (E. coli 0-111) | minimal inhibitory concentration (M.I.C.) (K. pneumoniae GN 3835) | minimal inhibitory concentration (M.I.C.) (K. pneumoniae DT) | minimal inhibitory concentration (M.I.C.) (P. morganii IFO 3168) | minimal inhibitory concentration (M.I.C.) (C. freundii GN 1706) | minimal inhibitory concentration (M.I.C.) (C. freundii GN 99) | minimal inhibitory concentration (M.I.C.) (E. coli NIHJ JC-2) | minimal inhibitory concentration (M.I.C.) (E. coli T-7) | minimal inhibitory concentration (M.I.C.) (P. vulgaris IFO 3988) | minimal inhibitory concentration (M.I.C.) (P. vulgaris GN 4413) | minimal inhibitory concentration (M.I.C.) (P. mirabilis GN 4359) | minimal inhibitory concentration (M.I.C.) (S. aureus 1840) | minimal inhibitory concentration (M.I.C.) (S. aureus 209P) | minimal inhibitory concentration (M.I.C.) (S. marcescens IFO 12648) | minimal inhibitory concentration (M.I.C.) (S. marcescens TN 24) | minimal inhibitory concentration (M.I.C.) (E. cloacae TN 1282) | minimal inhibitory concentration (M.I.C.) (P. rettgeri TN 338) | minimal inhibitory concentration (M.I.C.) (P. rettgeri GN4733)
CC(=O)OCC1=C(C(=O)O)N2C(=O)C(NC(=O)/C(=N\OC(=O)NC(C)C)c3csc(=N)[nH]3)C2SC1 (stereo not drawn) [Example II - 16] | 0.024 | 0.78 | 0.1 | 0.78 | 0.78 | 0.39 | 0.39 | 3.13 | 0.39 | 25 | 0.1 | 3.13 | 1.56 | 6.25 | 25 | 6.25 | ≤ 0.012 | 0.2
CCCNC(=O)O/N=C(\C(=O)NC1C(=O)N2C(C(=O)O)=C(COC(C)=O)CSC12)c1csc(=N)[nH]1 (stereo not drawn) [Example II - 12] | 0.024 | 0.39 | 0.1 | 0.78 | 0.78 | 0.39 | 0.39 | 3.13 | 0.39 | 12.5 | 0.1 | 1.56 | 1.56 | 6.25 | 12.5 | 6.25 | ≤ 0.012 | 0.2
CCCNC(=O)O/N=C(\C(=O)NC1C(=O)N2C(C(=O)O)=C(COC(N)=O)CSC12)c1csc(=N)[nH]1 (stereo not drawn) [Example II - 13] | 0.05 | 0.2 | 0.05 | 3.13 | 0.78 | 0.1 | 0.2 | 1.56 | 0.39 | 50 | 0.1 | 3.13 | 1.56 | 6.25 | 25 | 6.25 | ≤ 0.012 | 0.1
CCNC(=O)O/N=C(\C(=O)NC1C(=O)N2C(C(=O)O)=C(COC(C)=O)CSC12)c1csc(=N)[nH]1 (stereo not drawn) [Example II - 7] | 0.024 | 0.39 | 0.05 | 1.56 | 0.78 | 0.39 | 0.39 | 1.56 | 0.2 | 6.25 | 0.1 | 3.13 | 1.56 | 6.25 | 6.25 | 12.5 | ≤ 0.012 | 0.1
